The results in this text go back to patent publication US11597724B2, “Herbicidally active 3-phenylisoxazoline-5-carboxamides of tetrahydro and dihydrofuran carboxylic acids and esters” (Bayer Aktiengesellschaft, priority 2017, dated 2023).

Format in all cases: in vivo
One test concerns Avena fatua. Kind of test: Pre-emergence herbicidal activity against AVEFA. The settings on record: dosage 80 g/ha; for pest or weed control at 80 g/ha: Avena fatua, 504 h, read-out: Pre-emergence herbicidal activity against AVEVA in % (AVEFA). The text has this: (§1) 1. Pre-Emergence Herbicidal Action and Crop Plant Compatibility Seeds of monocotyledonous and dicotyledonous weed plants and crop plants are placed in plastic or wood fiber pots and covered with soil. The compounds of the invention, formulated in the form of wettable powders (WP) or as emulsion concentrates (EC), are then applied onto the surface of the covering soil as aqueous suspension or emulsion with addition of 0.5% additive at a water application rate of 600 l/ha (converted). After the treatment, the pots are placed in a greenhouse and kept under good growth conditions for the trial plants. After about 3 weeks, the effect of the preparations is scored visually in comparison with untreated controls as percentages. For example, 100% activity=the plants have died, 0% activity=like control plants. AMARE: Amaranthus retroflexus AVEFA: Avena fatua

For test [1], the system named is Stellaria media. Kind of test: Pre-emergence herbicidal activity against STEME. The following applies: dosage 80 g/ha; for pest or weed control at 80 g/ha: Stellaria media, 504 h.
Description: as §1, with “STEME: Stellaria media VERPE: Veronica persica” for “AMARE: Amaranthus retroflexus AVEFA: Avena fatua”

For the next test, the system named is Alopecurus myosuroides. Kind of test: Post-emergence herbicidal activity against ALOMY. The following applies: dosage 320 g/ha, rated about 3 weeks after treatment; for pest or weed control at 320 g/ha: Alopecurus myosuroides, 504 h. In outline: (§2)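 Greenhouse-grown plants treated at one-leaf stage, 2 to 3 weeks after sowing, with WP or EC formulations sprayed as aqueous suspension/emulsion plus 0.5% additive at 600 l/ha. Activity rated visually about 3 weeks later versus untreated controls (100% = plants dead, 0% = like control).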

The next test concerns Lolium rigidum. Kind of test: Post-emergence herbicidal activity against LOLRI. The settings on record: dosage 320 g/ha, rated about 3 weeks after treatment; for pest or weed control at 320 g/ha: Lolium rigidum, 504 h. The method in brief: (§3)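 Greenhouse-grown plants sprayed post-emergence at the one-leaf stage, 2 to 3 weeks after sowing, with WP or EC formulations plus 0.5% additive at 600 l/ha water. Activity rated visually after about 3 weeks versus untreated controls (100% = plants dead, 0% = like control).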

For the next test, the system named is Pharbitis purpurea. Kind of test: Post-emergence herbicidal activity against PHBPU. The following applies: dosage 320 g/ha, rated about 3 weeks after treatment; for pest or weed control at 320 g/ha: Ipomoea purpurea, 504 h. The method in brief:
as §3

Another test has as its system Polygonum convolvulus. Kind of test: Post-emergence herbicidal activity against POLCO. The settings on record: dosage 320 g/ha, rated about 3 weeks after treatment; for pest or weed control at 320 g/ha: Fallopia convolvulus, 504 h. The method in brief: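 Greenhouse weeds in sandy loam were sprayed at the one-leaf stage, 2–3 weeks after sowing, with WP or EC formulations plus 0.5% additive at 600 l/ha water. About 3 weeks later, damage was rated visually against untreated controls, where 100% means plants dead and 0% means like control.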

For test [2], the system named is Stellaria media. Kind of test: Post-emergence herbicidal activity against STEME. The settings on record: dosage 320 g/ha, rated about 3 weeks after treatment; for pest or weed control at 320 g/ha: Stellaria media, 504 h. In outline: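 Greenhouse plants treated at one-leaf stage, 2–3 weeks after sowing, by spraying WP or EC formulations with 0.5% additive at 600 l/ha water. Visual rating about 3 weeks later versus untreated controls (100% = plants dead, 0% = like controls).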

The subject of the next test is Hordeum murinum. Kind of test: Post-emergence herbicidal activity against HORMU. The settings on record: Hordeum murinum, 504 h, dosage 320 g/ha. The method in brief:
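Greenhouse pot plants sprayed post-emergence at one-leaf stage (2-3 weeks after sowing) with WP or EC formulations, 0.5% additive, 600 l/ha water. Visual rating about 3 weeks later versus untreated controls: 100% = plants dead, 0% = like control.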

The next test concerns Abutilon theophrasti. Kind of test: Post-emergence herbicidal activity against ABUTH. The following applies: Abutilon theophrasti, 504 h, dosage 320 g/ha, rated about 3 weeks after treatment. The method in brief: as §2

Take `CCOC(=O)[C@H]1C[C@@H](NC(=O)C2(C)CC(c3cccc(F)c3)=NO2)CO1` (mixture of isomers) [I-30, ethyl cis-4-[[(5RS)-3-(3-fluorophenyl)-5-methyl-4H-isoxazole-5-carbonyl]amino]tetrahydrofuran-2-carboxylate]: the values for the pest or weed control at 80 g/ha with Avena fatua and with Stellaria media [1] were 80% and 90%, respectively. The pest or weed control at 320 g/ha in the test with Alopecurus myosuroides worked out at 100%; with Lolium rigidum it was 100%; in the test on Pharbitis purpurea, 90%; in the test with Polygonum convolvulus it was 80%; in the test on Stellaria media [2], 90%; in the test with Hordeum murinum, 100%.

In the test with Stellaria media [1], `CC(C)(C)OC(=O)[C@H]1C[C@@H](NC(=O)C2(C)CC(c3cccc(F)c3)=NO2)CO1` (mixture of isomers) [I-33, tert-butyl cis-4-[[(5RS)-3-(3-fluorophenyl)-5-methyl-4H-isoxazole-5-carbonyl]amino]tetrahydrofuran-2-carboxylate] returned a pest or weed control at 80 g/ha of 100%. The pest or weed control at 320 g/ha worked out at 100% in the test on Alopecurus myosuroides; 100% with Lolium rigidum; 90% with Pharbitis purpurea; 80% with Polygonum convolvulus; 90% in the test on Stellaria media [2]; 90% in the test with Hordeum murinum.

Turning to `C=C[C@]1(C(=O)N[C@H]2CO[C@@H](C(=O)OCc3ccccc3)C2)CC(c2cc(F)cc(F)c2)=NO1` (mixture of isomers) [I-37, benzyl cis-4-[[(5S)-3-(3,5-difluorophenyl)-5-vinyl-4H-isoxazole-5-carbonyl]amino]tetrahydrofuran-2-carboxylate], the pest or weed control at 80 g/ha with Avena fatua and with Stellaria media [1] was 100% in each case. Besides, the pest or weed control at 320 g/ha in the test with Lolium rigidum turned out to be 90%; in the test on Abutilon theophrasti it was 80%; in the test on Pharbitis purpurea, 90%; in the test on Stellaria media [2] it was 90%; in the test on Hordeum murinum it was 80%.

For `COC(=O)[C@H]1C[C@@H](NC(=O)C2(C)CC(c3cc(F)cc(F)c3)=NO2)CO1` (relative stereo) [I-01, methyl cis-4-[[3-(3,5-difluorophenyl)-5-methyl-4H-isoxazole-5-carbonyl]amino]tetrahydrofuran-2-carboxylate], the pest or weed control at 80 g/ha in the test with Avena fatua and in the test on Stellaria media [1] was 90% each time. For the same molecule, the pest or weed control at 320 g/ha in the test on Alopecurus myosuroides worked out at 100%; in the test with Abutilon theophrasti, 80%; with Pharbitis purpurea, 90%; in the test on Polygonum convolvulus, 80%; in the test on Stellaria media [2], 90%.

In the case of `COC(=O)C1COCC1NC(=O)C1(OC)CC(c2cc(F)cc(F)c2)=NO1` (stereo not drawn) [I-27, methyl 4-[[3-(3,5-difluorophenyl)-5-methoxy-4H-isoxazole-5-carbonyl]amino]tetrahydrofuran-3-carboxylate], the pest or weed control at 80 g/ha with Avena fatua and in the test with Stellaria media [1] was 90% in each case. In addition, the pest or weed control at 320 g/ha in the test with Alopecurus myosuroides came to 90%; in the test on Pharbitis purpurea it was 80%; in the test on Polygonum convolvulus, 80%; in the test on Stellaria media [2], 80%.

For the molecule `COC(=O)C1COCC1NC(=O)[C@@]1(C)CC(c2cc(F)cc(F)c2)=NO1` (stereo partly drawn) [I-28, methyl 4-[[(5R)-3-(3,5-difluorophenyl)-5-methyl-4H-isoxazole-5-carbonyl]amino]tetrahydrofuran-3-carboxylate], the pest or weed control at 80 g/ha in the test on Avena fatua and with Stellaria media [1] was 100% each time. The pest or weed control at 320 g/ha was 90% in the test with Alopecurus myosuroides; 80% in the test on Abutilon theophrasti; 80% in the test on Pharbitis purpurea; 80% in the test with Polygonum convolvulus; 80% in the test with Stellaria media [2].

On to `COC(=O)C1COCC1NC(=O)C1(C)CC(c2cc(F)cc(F)c2)=NO1` (stereo not drawn) [I-19, methyl 4-[[3-(3,5-difluorophenyl)-5-methyl-4H-isoxazole-5-carbonyl]amino]tetrahydrofuran-3-carboxylate], for which the pest or weed control at 80 g/ha with Avena fatua and with Stellaria media [1] was 80% in each case. Also, the pest or weed control at 320 g/ha in the test on Alopecurus myosuroides is 90%; with Abutilon theophrasti, 80%; with Pharbitis purpurea, 80%; in the test with Polygonum convolvulus it was 80%; in the test on Stellaria media [2], 90%.

Regarding `C=CC1(C(=O)N[C@H]2CO[C@@H](C(=O)O)C2)CC(c2cc(F)cc(F)c2)=NO1` (relative stereo) [I-21, cis-4-[[3-(3,5-difluorophenyl)-5-vinyl-4H-isoxazole-5-carbonyl]amino]tetrahydrofuran-2-carboxylic acid], the pest or weed control at 80 g/ha was 90% with Avena fatua and 100% with Stellaria media [1]. In addition, the pest or weed control at 320 g/ha in the test with Alopecurus myosuroides was found to be 90%; in the test on Pharbitis purpurea it was 80%; with Stellaria media [2] it was 80%.

With `COC(=O)C1CC(NC(=O)C2(C(C)(F)F)CC(c3cc(F)cc(F)c3)=NO2)CO1` (stereo not drawn) [I-49], the “Pre-emergence herbicidal activity against AVEVA in % (AVEFA)” value in the test on Avena fatua was 100%. Further, in the test on Stellaria media [1], the “Pre-emergence herbicidal activity against STEME in %” value came to 100%. Further, in the test on Alopecurus myosuroides, the “Post-emergence herbicidal activity against ALOMY in %” value amounted to 90%. The “Post-emergence herbicidal activity against LOLRI in %” value with Lolium rigidum was 90%. Moreover, in the test on Pharbitis purpurea, the “Post-emergence herbicidal activity against PHBPU in %” value amounted to 80%. In addition, the “Post-emergence herbicidal activity against POLCO in %” value in the test with Polygonum convolvulus is reported as 80%. Besides, the “Post-emergence herbicidal activity against STEME in %” value in the test with Stellaria media [2] amounted to 90%.

`C=C[C@]1(C(=O)NC2COCC2C(=O)OC)CC(c2cc(F)cc(F)c2)=NO1` (stereo partly drawn) [I-26, methyl 4-[[(5S)-3-(3,5-difluorophenyl)-5-vinyl-4H-isoxazole-5-carbonyl]amino]tetrahydrofuran-3-carboxylate]: the figures for the pest or weed control at 80 g/ha with Avena fatua and in the test on Stellaria media [1] were 90% and 100%, respectively. The pest or weed control at 320 g/ha turned out to be 90% with Alopecurus myosuroides, 80% in the test with Pharbitis purpurea and 90% in the test on Stellaria media [2].

For `CC(C)OC(=O)[C@H]1C[C@@H](NC(=O)C2(C)CC(c3cccc(F)c3)=NO2)CO1` (mixture of isomers) [I-32, isopropyl cis-4-[[(5RS)-3-(3-fluorophenyl)-5-methyl-4H-isoxazole-5-carbonyl]amino]tetrahydrofuran-2-carboxylate], the pest or weed control at 80 g/ha with Stellaria media [1] came to 90%. Further, the pest or weed control at 320 g/ha was found to be 90% in the test with Alopecurus myosuroides; 100% in the test with Lolium rigidum; 80% in the test on Abutilon theophrasti; 90% with Pharbitis purpurea; 80% in the test with Polygonum convolvulus; 90% in the test with Stellaria media [2]. The molecule further showed a pest or weed control at 320 g/ha in the test with Hordeum murinum of 90%.

`COC(=O)C1COCC1NC(=O)C1(OC)CC(c2cc(Cl)cc(Cl)c2)=NO1` (stereo not drawn) [I-29, methyl 4-[[3-(3,5-dichlorophenyl)-5-methoxy-4H-isoxazole-5-carbonyl]amino]tetrahydrofuran-3-carboxylate]: the pest or weed control at 80 g/ha in the test on Avena fatua amounted to 80%; in the test with Stellaria media [1], 90%. In addition, the pest or weed control at 320 g/ha in the test with Alopecurus myosuroides was found to be 90%; with Abutilon theophrasti it was 80%; with Pharbitis purpurea it was 80%; with Polygonum convolvulus it was 80%; with Stellaria media [2], 80%.
